# Measurements taken from patent US20260116920A1, “HUMAN TRANSFERRIN RECEPTOR BINDING PEPTIDE” (PEPTIDREAM INC., priority 2021, published 2026).
# Values joined by “and” are separate entries in the source; they are usually repeats but may differ in a detail not shown here. Equal values may be shown once. Read-outs that look alike come from different tables or passages of the source.
# Molecular target: T1, human transferrin receptor (hTfR) (Homo sapiens, UniProt P02786)
# T1 construct: made in house
# T1 sequence (P02786 89-760 limits assumed): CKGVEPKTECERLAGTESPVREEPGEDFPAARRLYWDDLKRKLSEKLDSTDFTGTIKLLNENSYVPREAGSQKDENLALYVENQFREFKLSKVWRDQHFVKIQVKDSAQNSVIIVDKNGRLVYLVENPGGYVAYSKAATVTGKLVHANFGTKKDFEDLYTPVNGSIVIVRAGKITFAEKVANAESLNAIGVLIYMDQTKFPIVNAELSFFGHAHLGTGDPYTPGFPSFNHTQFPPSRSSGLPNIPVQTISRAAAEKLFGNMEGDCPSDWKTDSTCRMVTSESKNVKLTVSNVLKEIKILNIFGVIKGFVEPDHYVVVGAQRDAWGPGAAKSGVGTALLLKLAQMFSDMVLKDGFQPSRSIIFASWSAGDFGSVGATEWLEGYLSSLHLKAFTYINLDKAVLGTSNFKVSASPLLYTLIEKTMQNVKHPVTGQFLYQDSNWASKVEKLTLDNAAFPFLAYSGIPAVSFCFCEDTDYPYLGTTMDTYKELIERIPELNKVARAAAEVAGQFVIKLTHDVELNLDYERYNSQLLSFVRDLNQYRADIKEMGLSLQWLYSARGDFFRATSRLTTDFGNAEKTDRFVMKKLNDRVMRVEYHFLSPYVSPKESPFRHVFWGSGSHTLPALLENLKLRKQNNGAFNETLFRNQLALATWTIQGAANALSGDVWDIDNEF
# Assay: Evaluation of molecular interaction between transferrin receptor (hTfR) and peptide using surface plasmon resonance (SPR)
# Type: binding
# Outline: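 Using a Ni-NTA surface bearing covalently coupled hTfR dimer, peptides were tested at five concentrations from 5 to 100 nM. Running buffer was 10 mM HEPES pH 8.0, 150 mM NaCl, 0.05% Tween 20, 0.1% BSA, 1.0% DMSO; single-cycle sensorgrams were least-squares fitted for KD.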
# [1] = surface plasmon resonance, binding to hTfR, KD class symbol, read-out: SPR (KD value)
Compound,Kd [1],"Kd (SPR, immobilized recombinant hTfR, single-cycle kinetics, substitution variants of 894_3151, read-out: KD)",KD (Each Peptide)/KD (894_3151) (ratio of KD to KD of 894_3151 (SEQ ID NO: 13))
CC[C@H](C)[C@@H]1NC(=O)[C@H](Cc2ccc(OC)cc2)NC(=O)[C@H](Cc2ccc(O)cc2)NC(=O)[C@H](CC(N)=O)NC(=O)[C@H](Cc2c[nH]c3ccccc23)NC(=O)[C@H](C(C)C)NC(=O)[C@H](Cc2cccc(Cl)c2)N(C)C(=O)[C@H](C(C)C)NC(=O)[C@H](C)NC(=O)CSC[C@@H](C(=O)NCC(=O)N[C@@H](CCCCN=[N+]=[N-])C(N)=O)NC(=O)[C@H](Cc2ccc(O)cc2)N(C)C(=O)[C@H](Cc2ccccc2)NC(=O)[C@H](CCCNC(=N)N)NC(=O)[C@H](CCCCN)NC(=O)[C@H]([C@@H](C)CC)NC1=O [compound 12],1 to 100 nM,–,–
CC[C@H](C)[C@@H]1NC(=O)[C@H](Cc2ccc(O)cc2)NC(=O)[C@H](Cc2ccc(O)cc2)NC(=O)[C@H](CC(N)=O)NC(=O)[C@H](Cc2c[nH]c3ccccc23)NC(=O)[C@H](C(C)C)NC(=O)[C@H](Cc2ccccc2)N(C)C(=O)[C@H](C(C)C)NC(=O)[C@H](C)NC(=O)CSC[C@@H](C(=O)NCCOCCOCCOCCOCCC(N)=O)NC(=O)[C@H](Cc2ccc(O)cc2)N(C)C(=O)[C@H](Cc2ccccc2)NC(=O)[C@@H](CCCNC(=N)N)NC(=O)[C@H](CCCNC(=N)N)NC(=O)[C@H]([C@@H](C)CC)NC1=O [compound 14],1 to 100 nM,–,–
CC[C@H](C)[C@@H]1NC(=O)[C@H](Cc2ccc(O)cc2)NC(=O)[C@H](Cc2ccc(O)cc2)NC(=O)[C@H](CC(N)=O)NC(=O)[C@H](Cc2c[nH]c3ccccc23)NC(=O)[C@H](C(C)C)NC(=O)[C@H](Cc2ccccc2)N(C)C(=O)[C@H](C(C)C)NC(=O)[C@H](C)NC(=O)CSC[C@@H](C(=O)NCCOCCOCCOCCOCCC(N)=O)NC(=O)[C@H](Cc2ccc(O)cc2)N(C)C(=O)[C@H](Cc2ccccc2)NC(=O)[C@H](CCCNC(=N)N)NC(=O)[C@H](CCCNC(=N)N)N(C)C(=O)[C@H]([C@@H](C)CC)NC1=O [compound 16],1 to 100 nM,–,–
CC[C@H](C)[C@@H]1NC(=O)[C@H](Cc2ccc(OC)cc2)NC(=O)[C@H](Cc2ccc(O)cc2)NC(=O)[C@H](CC(N)=O)NC(=O)[C@H](Cc2c[nH]c3ccccc23)NC(=O)[C@H](C(C)C)NC(=O)[C@H](Cc2ccccc2)N(C)C(=O)[C@H](C(C)C)NC(=O)[C@H](C)NC(=O)CSC[C@@H](C(=O)NCCOCCOCCOCCOCCC(N)=O)NC(=O)[C@H](Cc2ccc(O)cc2)N(C)C(=O)[C@H](Cc2ccccc2)NC(=O)[C@H](CCCNC(=N)N)NC(=O)[C@H](CCCNC(=N)N)N(C)C(=O)[C@H]([C@@H](C)CC)NC1=O [compound 17],1 to 100 nM,–,–
CC[C@H](C)[C@@H]1NC(=O)[C@H](Cc2ccc(O)cc2)NC(=O)[C@H](Cc2ccc(O)cc2)NC(=O)[C@H](CC(N)=O)NC(=O)[C@H](Cc2c[nH]c3ccc(Cl)cc23)NC(=O)[C@H](C(C)C)NC(=O)[C@H](Cc2ccccc2)N(C)C(=O)[C@H](C(C)C)NC(=O)[C@H](C)NC(=O)CSC[C@@H](C(=O)NCCOCCOCCOCCOCCC(N)=O)NC(=O)[C@H](Cc2ccc(O)cc2)N(C)C(=O)[C@H](Cc2ccccc2)NC(=O)[C@H](CCCNC(=N)N)NC(=O)[C@H](CCCNC(=N)N)NC(=O)[C@H]([C@@H](C)CC)NC1=O [compound 18],< 1 nM,–,–
CC[C@H](C)[C@@H]1NC(=O)[C@H](Cc2ccc(O)cc2)NC(=O)[C@H](Cc2ccc(O)cc2)NC(=O)[C@H](CC(N)=O)NC(=O)[C@H](Cc2c[nH]c3ccc(Cl)cc23)NC(=O)[C@H](C(C)C)NC(=O)[C@H](Cc2ccccc2)N(C)C(=O)[C@H](C(C)C)NC(=O)[C@H](C)NC(=O)CSC[C@@H](C(=O)NCCOCCOCCOCCOCCC(N)=O)NC(=O)[C@H](Cc2ccc(O)cc2)N(C)C(=O)[C@H](Cc2ccccc2)NC(=O)[C@@H](CCCNC(=N)N)NC(=O)[C@H](CCCNC(=N)N)NC(=O)[C@H]([C@@H](C)CC)NC1=O [compound 20],1 to 100 nM,–,–
CC[C@H](C)[C@@H]1NC(=O)[C@H](Cc2ccc(OC)cc2)NC(=O)[C@H](Cc2ccc(O)cc2)NC(=O)[C@H](CC(N)=O)NC(=O)[C@H](Cc2c[nH]c3ccc(Cl)cc23)NC(=O)[C@H](C(C)C)NC(=O)[C@H](Cc2ccccc2)N(C)C(=O)[C@H](C(C)C)NC(=O)[C@H](C)NC(=O)CSC[C@@H](C(=O)NCCOCCOCCOCCOCCC(N)=O)NC(=O)[C@H](Cc2ccc(O)cc2)N(C)C(=O)[C@H](Cc2ccccc2)NC(=O)[C@@H](CCCNC(=N)N)NC(=O)[C@H](CCCNC(=N)N)NC(=O)[C@H]([C@@H](C)CC)NC1=O [compound 21],1 to 100 nM,–,–
CC[C@H](C)[C@@H]1NC(=O)[C@H](Cc2ccc(O)cc2)NC(=O)[C@H](Cc2ccc(O)cc2)NC(=O)[C@H](CC(N)=O)NC(=O)[C@H](Cc2c[nH]c3ccc(Cl)cc23)NC(=O)[C@H](C(C)C)NC(=O)[C@H](Cc2ccc(F)cc2)N(C)C(=O)[C@H](C(C)C)NC(=O)[C@H](C)NC(=O)CSC[C@@H](C(=O)NCCOCCOCCOCCOCCC(N)=O)NC(=O)[C@H](Cc2ccc(O)cc2)N(C)C(=O)[C@H](Cc2ccccc2)NC(=O)[C@@H](CCCNC(=N)N)NC(=O)[C@H](CCCNC(=N)N)NC(=O)[C@H]([C@@H](C)CC)NC1=O [compound 24],1 to 100 nM,–,–
CC[C@H](C)[C@@H]1NC(=O)[C@H](Cc2ccc(OC)cc2)NC(=O)[C@H](Cc2ccc(O)cc2)NC(=O)[C@H](CC(N)=O)NC(=O)[C@H](Cc2c[nH]c3ccc(Cl)cc23)NC(=O)[C@H](C(C)C)NC(=O)[C@H](Cc2ccc(F)cc2)N(C)C(=O)[C@H](C(C)C)NC(=O)[C@H](C)NC(=O)CSC[C@@H](C(=O)NCCOCCOCCOCCOCCC(N)=O)NC(=O)[C@H](Cc2ccc(O)cc2)N(C)C(=O)[C@H](Cc2ccccc2)NC(=O)[C@@H](CCCNC(=N)N)NC(=O)[C@H](CCCNC(=N)N)N(C)C(=O)[C@H]([C@@H](C)CC)NC1=O [compound 27],1 to 100 nM,–,–

# The remaining lines, values ahead:
Kd [1],"Kd (SPR, immobilized recombinant hTfR, single-cycle kinetics, substitution variants of 894_3151, read-out: KD)",KD (Each Peptide)/KD (894_3151) (ratio of KD to KD of 894_3151 (SEQ ID NO: 13)),Compound
< 1 nM,1.3 nM,1.0 and 1.4,CC[C@H](C)[C@@H]1NC(=O)[C@H](Cc2ccc(O)cc2)NC(=O)[C@H](Cc2ccc(O)cc2)NC(=O)[C@H](CC(N)=O)NC(=O)[C@H](Cc2c[nH]c3ccccc23)NC(=O)[C@H](C(C)C)NC(=O)[C@H](Cc2ccccc2)N(C)C(=O)[C@H](C(C)C)NC(=O)[C@H](C)NC(=O)CSC[C@@H](C(=O)NCC(=O)N[C@@H](CCCCN=[N+]=[N-])C(N)=O)NC(=O)[C@H](Cc2ccc(O)cc2)N(C)C(=O)[C@H](Cc2ccc(O)cc2)NC(=O)[C@H](CCCNC(=N)N)NC(=O)[C@H](CCCNC(=N)N)NC(=O)[C@H]([C@@H](C)CC)NC1=O [compound 13]
1 to 100 nM,–,–,CC[C@H](C)[C@@H]1NC(=O)[C@H](Cc2ccc(OC)cc2)NC(=O)[C@H](Cc2ccc(O)cc2)NC(=O)[C@H](CC(N)=O)NC(=O)[C@H](Cc2c[nH]c3ccccc23)NC(=O)[C@H](C(C)C)NC(=O)[C@H](Cc2ccccc2)N(C)C(=O)[C@H](C(C)C)NC(=O)[C@H](C)NC(=O)CSC[C@@H](C(=O)NCCOCCOCCOCCOCCC(N)=O)NC(=O)[C@H](Cc2ccc(O)cc2)N(C)C(=O)[C@H](Cc2ccccc2)NC(=O)[C@@H](CCCNC(=N)N)NC(=O)[C@H](CCCNC(=N)N)NC(=O)[C@H]([C@@H](C)CC)NC1=O [compound 15]
< 1 nM,–,–,CC[C@H](C)[C@@H]1NC(=O)[C@H](Cc2ccc(OC)cc2)NC(=O)[C@H](Cc2ccc(O)cc2)NC(=O)[C@H](CC(N)=O)NC(=O)[C@H](Cc2c[nH]c3ccc(Cl)cc23)NC(=O)[C@H](C(C)C)NC(=O)[C@H](Cc2ccccc2)N(C)C(=O)[C@H](C(C)C)NC(=O)[C@H](C)NC(=O)CSC[C@@H](C(=O)NCCOCCOCCOCCOCCC(N)=O)NC(=O)[C@H](Cc2ccc(O)cc2)N(C)C(=O)[C@H](Cc2ccccc2)NC(=O)[C@H](CCCNC(=N)N)NC(=O)[C@H](CCCNC(=N)N)NC(=O)[C@H]([C@@H](C)CC)NC1=O [compound 19]
< 1 nM,–,–,CC[C@H](C)[C@@H]1NC(=O)[C@H](Cc2ccc(O)cc2)NC(=O)[C@H](Cc2ccc(O)cc2)NC(=O)[C@H](CC(N)=O)NC(=O)[C@H](Cc2c[nH]c3ccc(Cl)cc23)NC(=O)[C@H](C(C)C)NC(=O)[C@H](Cc2ccc(F)cc2)N(C)C(=O)[C@H](C(C)C)NC(=O)[C@H](C)NC(=O)CSC[C@@H](C(=O)NCCOCCOCCOCCOCCC(N)=O)NC(=O)[C@H](Cc2ccc(O)cc2)N(C)C(=O)[C@H](Cc2ccccc2)NC(=O)[C@H](CCCNC(=N)N)NC(=O)[C@H](CCCNC(=N)N)NC(=O)[C@H]([C@@H](C)CC)NC1=O [compound 22]
< 1 nM,–,–,CC[C@H](C)[C@@H]1NC(=O)[C@H](Cc2ccc(OC)cc2)NC(=O)[C@H](Cc2ccc(O)cc2)NC(=O)[C@H](CC(N)=O)NC(=O)[C@H](Cc2c[nH]c3ccc(Cl)cc23)NC(=O)[C@H](C(C)C)NC(=O)[C@H](Cc2ccc(F)cc2)N(C)C(=O)[C@H](C(C)C)NC(=O)[C@H](C)NC(=O)CSC[C@@H](C(=O)NCCOCCOCCOCCOCCC(N)=O)NC(=O)[C@H](Cc2ccc(O)cc2)N(C)C(=O)[C@H](Cc2ccccc2)NC(=O)[C@H](CCCNC(=N)N)NC(=O)[C@H](CCCNC(=N)N)NC(=O)[C@H]([C@@H](C)CC)NC1=O [compound 23]
100 to 1000 nM,–,–,CC[C@H](C)[C@@H]1NC(=O)[C@H](Cc2ccc(O)cc2)NC(=O)[C@H](Cc2ccc(O)cc2)NC(=O)[C@H](CC(N)=O)NC(=O)[C@H](Cc2c[nH]c3ccc(Cl)cc23)NC(=O)[C@H](C(C)C)NC(=O)[C@H](Cc2ccc(F)cc2)N(C)C(=O)[C@H](C(C)C)NC(=O)[C@H](C)NC(=O)CSC[C@@H](C(=O)NCCOCCOCCOCCOCCC(N)=O)NC(=O)[C@H](Cc2ccc(O)cc2)N(C)C(=O)[C@H](Cc2ccccc2)NC(=O)[C@@H](CCCNC(=N)N)NC(=O)[C@H](CCCNC(=N)N)N(C)C(=O)[C@H]([C@@H](C)CC)NC1=O [compound 25]
1 to 100 nM,–,–,CC[C@H](C)[C@@H]1NC(=O)[C@H](Cc2ccc(OC)cc2)NC(=O)[C@H](Cc2ccc(O)cc2)NC(=O)[C@H](CC(N)=O)NC(=O)[C@H](Cc2c[nH]c3ccc(Cl)cc23)NC(=O)[C@H](C(C)C)NC(=O)[C@H](Cc2ccc(F)cc2)N(C)C(=O)[C@H](C(C)C)NC(=O)[C@H](C)NC(=O)CSC[C@@H](C(=O)NCCOCCOCCOCCOCCC(N)=O)NC(=O)[C@H](Cc2ccc(O)cc2)N(C)C(=O)[C@H](Cc2ccccc2)NC(=O)[C@@H](CCCNC(=N)N)NC(=O)[C@H](CCCNC(=N)N)NC(=O)[C@H]([C@@H](C)CC)NC1=O [compound 26]
